# Measurements published in patent publication US11324832B2, “Tripartite modulators of endosomal G protein-coupled receptors” (Endosome Therapeutics, Inc., priority 2015, dated 2022).
# Where a SMILES comes first, the peptide text is derived from it. [ ]: non-standard residue; d: D form. The star is where a group is joined. X1 = CC(C)CCC[C@@H](C)[C@H]1CC[C@H]2[C@@H]3CC[C@H]4C[C@@H](O*)CC[C@]4(C)[C@H]3CC[C@]12C; PEG4 = NCCOCCOCCOCCOCCC(=O)O; PEG3 = NCCOCCOCCOCCC(=O)O
# Columns and labels:
# NK1R [1] = target: T1, NK1R (Rattus norvegicus, UniProt P14600); assay: FRET biosensors of compartmentalized signaling (ERK, PKC, cAMP) in NK1R-expressing HEK293 cells; format: cell-based; parameters: Full length and truncated 6312 rat HA-NK1R have been described; expressed in transfected cells; host or cells: HEK293 (transient); conditions: for effect on SP activation of cytosolic ERK / effect on SP-induced plasma membrane cAMP / effect on plasma membrane PKC activity: endocytic inhibitor plus SP 1 nM; for effect on SP stimulation of cytosolic PKC / effect on SP stimulation of cytosolic cAMP / effect on SP stimulation of nuclear ERK: endocytic or signaling inhibitor plus SP 1 nM
# Procedure: To study the link between NK1R trafficking and signaling, the NK1R and Förster Resonance Energy Transfer (FRET) biosensors targeted to detect activated ERK in the cytosol (CytoEKAR) or nucleus (NucEKAR, FIG. 2A), activated PKC at the plasma membrane (pmCKAR) or in the cytosol (CytoCKAR, FIG. 2C), and cAMP at the plasma membrane (pmEpac2) or in the cytosol (CytoEpac2, FIG. 2E) were expressed in HEK293 cells.
# HEK293 cells were transfected with 55 ng/well rat NK1R with N-terminal HA. 11 epitope tag (HA-NK1R) or CLR plus RAMP1 and 40 ng/well FRET biosensors. FRET was assessed 48 h after transfection, following serum restriction (0.5% FBS overnight). For experiments using clathrin or dynamin siRNA, cells were transfected with 55 ng/well rat HA-NK1R, 40 ng/well FRET biosensor and 25 nM/well scrambled, clathrin or dynamin ON-TARGETplus SMARTpool siRNA (GE Dharmacon). FRET was assessed 72 h after transfection, following serum restriction (0.5% FBS overnight). Cells were equilibrated in HBSS at 37° C. and FRET was analyzed using a GE Healthcare INCell 2000 Analyzer. For GFP/RFP emission ratio analysis, cells were sequentially excited using a FITC filter (490/20) with emission measured using dsRed (605/52) and FITC (525/36) filters, and a polychroic optimized for the FITC/dsRed filter pair (Quad4). For CFP/YFP emission ratio analysis, cells were sequentially excited using a CFP filter (430/24) with emission measured using YFP (535/30) and CFP (470/24) filters, and a polychroic optimized for the CFP/YFP filter pair (Quad3). Cells were imaged every 1 min, allowing image capture of 14 wells per minute. Baseline emission ratio images were captured for 4 min. […] Cells were then stimulated with the positive control (200 nM phorbol 12,13-dibutyrate for ERK; 200 nM phorbol 12,13-dibutyrate with phosphatase inhibitor cocktail for PKC; 10 μM forskolin, 100 μM 3-isobutyl-1-methylxanthine, 100 nM PGE1 for cAMP) for 10 min to generate a maximal increase, and positive emission ratio images were captured for 4 min. Data were analyzed as described and expressed as emission ratios relative to baseline for each cell (F/F0). Cells with >10% change in F/F0 after stimulation with positive controls were selected for analysis.
# [2] = system: CFA-induced mechanical hyperalgesia in mice; assay: CFA-induced mechanical hyperalgesia in mice; format: in vivo, mouse; conditions: for effect on CFA-induced sustained mechanical hyperalgesia: endocytic inhibitor i.t. 36 h after CFA
# From the text: (§1) Investigators were unaware of test agents.
# [3] = system: formalin-evoked nocifensive behavior in mice; assay: Formalin-evoked nocifensive behavior in mice; format: in vivo, mouse; conditions: for effect on formalin-evoked nocifensive behavior: i.t. 30 min before intraplantar formalin
# From the text: as §1
# [4] = system: capsaicin-evoked mechanical hyperalgesia in mice; assay: Capsaicin-evoked mechanical hyperalgesia and edema in mice
# NK1R [5] = target: T1, NK1R; assay: BRET of NK1R trafficking (KRas-Venus, Rab5a-Venus) in HEK293 cells; format: cell-based; parameters: Full length and truncated 6312 rat HA-NK1R have been described; expressed in transfected cells; host or cells: HEK293 (transient); conditions: inhibitor plus SP
# Procedure: Bioluminescence Resonance Energy Transfer (BRET) was employed to quantitatively assess the proximity of the NK1R to key regulators of GPCR trafficking (βarrs), and resident proteins of plasma (KRas) and early endosomal (Rab5a) membranes in HEK293 cells (FIG. 1A).
# HEK293 cells were transfected with the following cDNAs: 1 μg NK1R-RLuc8 or 1 μg CLR-RLuc8+1 μg Myc-RAMP1+4 μg KRas-Venus, 4 μg Rab5a-Venus, 4 μg βarr1-YFP, or 4 μg βarr2-YFP; or 1 μg NK1R+0.5 μg Gαq-RLuc8+1 μg Gβ1+4 μg Gγ2-Venus; or 1 μg NK1R+0.5 μg Gαq-RLuc8+1 μg Gβ1+1 μg Gγ2+4 μg Rab5a-Venus. After 48 h, cells were equilibrated in Hank's balanced salt solution (HBSS) at 37° C., and incubated with the RLuc substrate coelenterazine h (5 μM, 15 min).
# [6] = preincubated 30 min, then immediately challenged with SP
# [7] = i.t. 36 h after intraplantar CFA
# [8] = i.t. 3 h before intraplantar capsaicin
# [9] = i.t. 30 min before intraplantar capsaicin
# T1 sequence (P14600 whole entry, the tested form may be a part): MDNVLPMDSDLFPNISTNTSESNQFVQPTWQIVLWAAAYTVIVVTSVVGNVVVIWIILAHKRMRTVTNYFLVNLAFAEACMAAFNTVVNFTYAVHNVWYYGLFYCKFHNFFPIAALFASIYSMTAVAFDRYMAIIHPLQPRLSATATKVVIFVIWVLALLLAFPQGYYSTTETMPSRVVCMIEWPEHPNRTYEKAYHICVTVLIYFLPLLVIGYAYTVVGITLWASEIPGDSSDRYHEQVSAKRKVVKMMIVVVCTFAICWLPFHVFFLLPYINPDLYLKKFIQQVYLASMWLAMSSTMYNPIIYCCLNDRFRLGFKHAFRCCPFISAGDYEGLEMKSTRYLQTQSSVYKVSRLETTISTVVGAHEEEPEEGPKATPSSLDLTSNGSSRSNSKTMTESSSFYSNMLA
effect on plasma membrane PKC activity (NK1R [1]),effect on SP stimulation of cytosolic PKC (NK1R [1]),effect on SP stimulation of cytosolic cAMP (NK1R [1]),effect on SP stimulation of nuclear ERK (NK1R [1]),"effect on SP-induced NK1R endocytosis (BRET KRas-Venus decrease, Rab5a-Venus increase) (NK1R [5])",SMILES,effect on SP activation of cytosolic ERK (NK1R [1]),effect on SP-induced plasma membrane cAMP (NK1R [1]),effect on CFA-induced sustained mechanical hyperalgesia [2],effect on formalin-evoked nocifensive behavior [3],"effect on capsaicin-evoked edema (left paw thickness) [4, 9]","effect on capsaicin-evoked mechanical hyperalgesia (von Frey, left paw) [4, 9]",also measured
,,,,,CC(=O)N[C@@H](CC(=O)O[C@H]1CC[C@@]2(C)[C@@H](CC[C@@H]3[C@@H]2CC[C@]2(C)[C@@H]([C@H](C)CCCC(C)C)CC[C@@H]32)C1)C(=O)NCCOCCOCCOCCOCCC(=O)NCCOCCOCCOCCC(=O)NCCOCCOCCOCCOCCC(=O)N[C@H](CCCNC(=N)N)C(=O)N1CCC[C@H]1C(=O)N[C@@H](CCCCN)C(=O)N1CCC[C@H]1C(=O)N[C@@H](CCC(N)=O)C(=O)N[C@@H](CCC(N)=O)C(=O)N[C@H](Cc1c[nH]c2ccccc12)C(=O)N[C@@H](Cc1ccccc1)C(=O)N[C@H](Cc1c[nH]c2ccccc12)C(=O)N[C@@H](CC(C)C)C(=O)N[C@@H](CC(C)C)C(N)=O [Compound 1] (Ac-D(X1)[PEG4][PEG3][PEG4][dR]PKPQQ[dW]F[dW]LL-NH2),,,,,,,"antagonism of SP activation of cytosolic ERK, pre-incubation (NK1R [1]; [6]): blocked activation of nuclear and cytosolic ERK; antagonism of SP activation of nuclear ERK, pre-incubation (NK1R [1]; [6]): blocked activation of nuclear and cytosolic ERK; antagonism of SP activation of nuclear ERK, pulse incubation (NK1R [1]; pulse incubated 30 min, washed, SP 4 h later): alone inhibited nuclear ERK; duration of analgesia [2, 7]: > 6 h; time after which analgesic [2, 7]: 4 h; effect on formalin-evoked nocifensive behavior (both phases) ([3]; i.t. 3 h before intraplantar formalin): markedly inhibited both phases of nocifensive behavior; delay of analgesia ([4]; i.t. 30 min after capsaicin): 3 h; duration of analgesia ([4]; i.t. 30 min after capsaicin): > 6 h; duration of inhibition of capsaicin-evoked hyperalgesia [4, 8]: > 120 min; effect on capsaicin-evoked mechanical hyperalgesia (von Frey, left paw) [4, 8]: markedly inhibited capsaicin-evoked hyperalgesia"
amplified plasma membrane PKC activity,abolished,abolished,abolished,blocked,O=C(N/N=C/c1cc(O)c(O)cc1O)c1cc2ccccc2cc1O [Dy4],"did not suppress SP activation of cytosolic ERK or plasma membrane cAMP, but caused both responses to become sustained","did not suppress SP activation of cytosolic ERK or plasma membrane cAMP, but caused both responses to become sustained",partially reversed,inhibited both phases of nocifensive behavior,unaffected,inhibited hyperalgesia,
amplified plasma membrane PKC activity,abolished,abolished,abolished,blocked,O=C1NC(=NS(=O)(=O)c2cccc3ccccc23)S/C1=C\c1ccc(Br)cc1 [PS2],"did not suppress SP activation of cytosolic ERK or plasma membrane cAMP, but caused both responses to become sustained","did not suppress SP activation of cytosolic ERK or plasma membrane cAMP, but caused both responses to become sustained",partially reversed,inhibited both phases of nocifensive behavior,unaffected,inhibited hyperalgesia,effect on paw withdrawal responses of the uninjected right hind paw ([4]; intrathecal treatment): did not affect
